Experimental data published in ChEMBL document CHEMBL1133314, “Syntheses and biological evaluation of novel pseudomycin side-chain analogues. Part 2” (2000).
Values after ≈ are worked out from the molar mass of the structure shown.

Experiments:
[1] = system: Cryptococcus neoformans; assay: Tested in vitro for lowest concentration required to inhibit 90-100% of the visible growth of Cryptococcus neoformans
[2] = system: Candida albicans; assay: Lowest concentration required to inhibit 90-100% of the visible growth of Candida albicans; assay type: functional
[3] = system: Aspergillus fumigatus; assay: Lowest concentration required to inhibit 90-100% of the visible growth of Aspergillus fumigatus; assay type: functional
[4] = system: Cryptococcus neoformans; assay: Tested in vitro for lowest concentration required to inhibit 90-100% of the visible growth of Cryptococcus neoformans; Range is 0.02-0.078
[5] = system: Candida albicans; assay: Lowest concentration required to inhibit 90-100% of the visible growth of Candida albicans; Range is […]; assay type: functional
[6] = system: Candida albicans; assay: Lowest concentration required to inhibit 90-100% of the visible growth of Candida albicans; Range is 0.312-1.25; assay type: functional
[7] = system: Candida albicans; assay: Lowest concentration required to inhibit 90-100% of the visible growth of Candida albicans; Range is 0.625-1.25; assay type: functional

SMILES | MIC [1] [µg/mL] | MIC [2] [µg/mL] | MIC [3] [µg/mL] | MIC [4] [µg/mL] | MIC [5] [µg/mL] | MIC [6] [µg/mL] | MIC [7] [µg/mL]
C/C=C1\NC(=O)[C@H]([C@@H](C)O)NC(=O)[C@H](CCN)NC(=O)[C@H](CCCCN)NC(=O)[C@H](CC(=O)O)NC(=O)[C@@H](CCN)NC(=O)[C@@H](NC(=O)CC(O)CCCCCCCCCCCCCCC)COC(=O)[C@H]([C@H](O)CCl)NC(=O)[C@H]([C@H](O)C(=O)O)NC1=O (mixture of isomers) | – | 1.25 | 5 | 0.02 | – | – | –
C/C=C1\NC(=O)[C@H]([C@H](C)O)NC(=O)[C@H](CCN)NC(=O)[C@H](CCCCN)NC(=O)[C@H](CC(=O)O)NC(=O)[C@@H](CCN)NC(=O)[C@@H](NC(=O)C[C@H](O)CCCCCCCCCCCCCCC)COC(=O)[C@H]([C@H](O)CCl)NC(=O)[C@H]([C@H](O)C(=O)O)NC1=O | 0.01 (≈ 0.00791 µM) | 0.625 (≈ 0.495 µM) | 2.5 (≈ 1.98 µM) | – | – | – | –
C/C=C1\NC(=O)[C@H]([C@H](C)O)NC(=O)[C@H](CCN)NC(=O)[C@H](CCCCN)NC(=O)[C@H](CC(=O)O)NC(=O)[C@@H](CCN)NC(=O)[C@@H](NC(=O)C[C@@H](O)CCCCCCCCCCC)COC(=O)[C@H]([C@H](O)CCl)NC(=O)[C@H]([C@H](O)C(=O)O)NC1=O | – | – | > 20 | – | 5 (≈ 4.14 µM) | – | –
C/C=C1\NC(=O)[C@H]([C@H](C)O)NC(=O)[C@H](CCN)NC(=O)[C@H](CCCCN)NC(=O)[C@H](CC(=O)O)NC(=O)[C@@H](CCN)NC(=O)[C@@H](NC(=O)C[C@H](O)CCCCCCCCCCC)COC(=O)[C@H]([C@H](O)CCl)NC(=O)[C@H]([C@H](O)C(=O)O)NC1=O [PSEUDOMYCIN B] | – | – | > 20 | – | – | 1.25 (≈ 1.03 µM) | –
C/C=C1\NC(=O)[C@H]([C@@H](C)O)NC(=O)[C@H](CCN)NC(=O)[C@H](CCCCN)NC(=O)[C@H](CC(=O)O)NC(=O)[C@@H](CCN)NC(=O)[C@@H](NC(=O)CC(O)CCCCCCCCCCC)COC(=O)[C@H]([C@H](O)CCl)NC(=O)[C@H]([C@H](O)C(=O)O)NC1=O (mixture of isomers) | – | – | > 20 | – | – | – | 1.25

More lines, main results first:

MIC [1] [µg/mL] | MIC [2] [µg/mL] | MIC [3] [µg/mL] | MIC [4] [µg/mL] | SMILES | MIC [5] [µg/mL] | MIC [6] [µg/mL] | MIC [7] [µg/mL]
1.25 (≈ 0.968 µM) | 5 (≈ 3.87 µM) | 5 (≈ 3.87 µM) | – | C/C=C1\NC(=O)[C@H]([C@H](C)O)NC(=O)[C@H](CCN)NC(=O)[C@H](CCCCN)NC(=O)[C@H](CC(=O)O)NC(=O)[C@@H](CCN)NC(=O)[C@@H](NC(=O)C[C@H](O)CCCCCCCCCCCCCCCCC)COC(=O)[C@H]([C@H](O)CCl)NC(=O)[C@H]([C@H](O)C(=O)O)NC1=O | – | – | –
5 (≈ 3.87 µM) | 5 (≈ 3.87 µM) | > 20 | – | C/C=C1\NC(=O)[C@H]([C@H](C)O)NC(=O)[C@H](CCN)NC(=O)[C@H](CCCCN)NC(=O)[C@H](CC(=O)O)NC(=O)[C@@H](CCN)NC(=O)[C@@H](NC(=O)C[C@@H](O)CCCCCCCCCCCCCCCCC)COC(=O)[C@H]([C@H](O)CCl)NC(=O)[C@H]([C@H](O)C(=O)O)NC1=O | – | – | –
0.625 | 10 | 2.5 | – | C/C=C1\NC(=O)[C@H]([C@@H](C)O)NC(=O)[C@H](CCN)NC(=O)[C@H](CCCCN)NC(=O)[C@H](CC(=O)O)NC(=O)[C@@H](CCN)NC(=O)[C@@H](NC(=O)CC(O)CCCCCCCCCCCCCCCCC)COC(=O)[C@H]([C@H](O)CCl)NC(=O)[C@H]([C@H](O)C(=O)O)NC1=O (mixture of isomers) | – | – | –
0.312 (≈ 0.247 µM) | 2.5 (≈ 1.98 µM) | 10 (≈ 7.91 µM) | – | C/C=C1\NC(=O)[C@H]([C@H](C)O)NC(=O)[C@H](CCN)NC(=O)[C@H](CCCCN)NC(=O)[C@H](CC(=O)O)NC(=O)[C@@H](CCN)NC(=O)[C@@H](NC(=O)C[C@@H](O)CCCCCCCCCCCCCCC)COC(=O)[C@H]([C@H](O)CCl)NC(=O)[C@H]([C@H](O)C(=O)O)NC1=O | – | – | –
